Data taken from patent US6552214B1, “Antimicrobial compound” (General Electric Company, priority 2000, dated 2003).

Key:
E. coli = test: Kirby-Bauer type assay, zone of inhibition; type: cell-based; settings: 24 h incubation
Procedure: (§1) Antimicrobial activity of the modified IRGASAN® bacteriostat was compared to that of the unmodified material in a Kirby-Bauer type assay. Three solutions of IRGASAN® bacteriostat and three solutions of modified IRGASAN® bacteriostat (3, 30 and 3000 ppm) were prepared and soaked into Whatman filter paper disks ˜6 mm in diameter and allowed to dry. The disks were placed onto the surface of nutrient agar plates that had been inoculated with 1×10^6 cells of either E. coli or Pseudomonas aeruginosa. The ability of the compounds to inhibit bacterial growth was determined by measuring the diameter of the zone of inhibition surrounding the filter paper disks after 24 h of incubation. The results (TABLE 1) indicate that there is no difference in activity between the modified and unmodified IRGASAN® bacteriostat compound.

Pseudomonas aeruginosa = test: Kirby-Bauer type assay, zone of inhibition; type: cell-based; settings: P. aeruginosa, 24 h incubation
Procedure: as §1

[1] = Dioxin (2,8 DCDD) formation during GC-MS analysis; type: physicochemical; settings: injection of a 1000 ppm solution at 270° C. (518° F.)
Procedure: Dioxin formation was compared between modified and unmodified IRGASAN® bacteriostat samples. It was determined that 2,8 DCDD was produced during analysis of unmodified IRGASAN® bacteriostat by gas-chromatography-mass spectroscopy (GC-MS), presumably during injection of the material at 270° C. (518° F.).
The structure of IRGASAN® bacteriostat was modified by derivatization with BSTFA. A 0.1 ml volume of BSTFA (Supelco inc.) was added to 1.0 ml of a 1000 ppm IRGASAN® solution. Dioxin levels were undetectable upon analysis of the modified IRGASAN® solution by GC-MS.

[2] = background statement; cited from earlier work
[3] = 3 ppm solution soaked into filter paper disk
[4] = 30 ppm solution soaked into filter paper disk
[5] = 3000 ppm solution soaked into filter paper disk

| Structure (SMILES) | zone of inhibition at 3 ppm (E. coli; Escherichia coli, 3 ppm solution soaked into filter paper disk) | zone of inhibition at 30 ppm (E. coli; Escherichia coli, 30 ppm solution soaked into filter paper disk) | zone of inhibition at 3000 ppm (E. coli; Escherichia coli, 3000 ppm solution soaked into filter paper disk) | zone of inhibition at 3 ppm (Pseudomonas aeruginosa; Pseudomonas aeruginosa, 3 ppm solution soaked into filter paper disk) | zone of inhibition at 30 ppm (Pseudomonas aeruginosa; Pseudomonas aeruginosa, 30 ppm solution soaked into filter paper disk) | zone of inhibition at 3000 ppm (Pseudomonas aeruginosa; Pseudomonas aeruginosa, 3000 ppm solution soaked into filter paper disk) | production of DCDD (dioxin level) [1] | Zone of Inhibition (E. coli; [3]) | Zone of Inhibition (E. coli; [4]) | Zone of Inhibition (E. coli; [5]) | Zone of Inhibition (Pseudomonas aeruginosa; [3]) | Zone of Inhibition (Pseudomonas aeruginosa; [4]) | Zone of Inhibition (Pseudomonas aeruginosa; [5]) | temperature above which the ether converts to chlorinated dioxin (DCDD) [2] |
| --- | --- | --- | --- | --- | --- | --- | --- | --- | --- | --- | --- | --- | --- | --- |
| C[Si](C)(C)Oc1cc(Cl)ccc1Oc1ccc(Cl)cc1Cl [Modified, 2,4,4′-trichloro-2′-trimethylsilyloxy diphenyl ether] | 1 mm | 4 mm | 12 mm | 0 mm | 0 mm | 0 mm | undetectable |  |  |  |  |  |  |  |
| Oc1cc(Cl)ccc1Oc1ccc(Cl)cc1Cl [Unmodified, 2,4,4′-dichloro-2′-hydroxydiphenyl ether] |  |  |  |  |  |  | approximately 46 ppm | 1 mm | 4 mm | 12 mm | 0 mm | 0 mm | 0 mm | above 200 °C |
